According to US20060205716A1, “Microbicidal agents” (priority 2003, published 2006):

Columns and labels:
[1] = system: moulds (Acremonium strictum, Fusarium solani, Geotrichum candidum); experiment: Preservation of a cooling lubricant emulsion, repeated weekly contamination: moulds; conditions: limit <10^3-4 CFU/g, maximum test duration 10 weeks
Experimental: (§1) What was examined was the preserving action of CMC/MIT mixtures according to the invention in a cooling lubricant emulsion (5% mineral oil/emulsifier concentrate/95% water). To this end, biocide-free and perserved samples of a cooling lubricant emulsion were repeatedly, at weekly intervals, exposed to microbiological stress using the following microorganisms:
Moulds: • Acremonium strictum • Fusarium solani • Geotrichum candidum
(§2) In each case, the bacteria were added separately from the yeasts/moulds.
(§3) The maximum duration of the test was 10 weeks (=10 contaminations), if the following limits were not exceeded during the weekly determination of the number of germs:
(§4) yeasts/moulds<10^3-4 CFU/g.

[2] = system: yeasts (Rhodotorula rubra); experiment: Preservation of a cooling lubricant emulsion, repeated weekly contamination: yeasts; conditions: limit <10^3-4 CFU/g, maximum test duration 10 weeks
Experimental: as §1
Yeasts: • Rhodotorula rubra
as §2, §3, §4

Pseudomonas fluorescens = experiment: Minimum inhibitory concentration / synergism test with test germ Pseudomonas fluorescens; type: cell-based; conditions: pure active compound applied on its own
Excerpt: The observed synergism of the mixtures according to the invention can be determined by the following mathematical approach (cf. F. C. Kull, P. C. Elisman, H. D. Sylwestrowicz and P. K. Mayer, Appl. Microbiol. 9, 538 (1961): [formula] where • Qa=the amount of component A in the active compound mixture required to achieve the desired effect, i.e. no microbial growth, • QA=the amount of component A which, applied on its own, suppresses the growth of the microorganisms, • Qb=the amount of component B in the active compound mixture which suppresses the growth of the microorganisms, and • […]=the amount of component B which, applied on its own, suppresses the growth of the microorganisms.
A synergistic index of SI<1, in accordance with the above formula, indicates a synergistic effect for the active compound mixture.
The minimum inhibitory concentration of the active compound combinations listed in Table 1 were examined using the test germ Pseudomonas fluorescens

[3] = system: bacteria (Pseudomonas aeruginosa, P. fluorescens, P. oleovorans, P. rubescens, P. stutzeri, Alcaligenes faecalis, Citrobacter freundii, Corynebacterium sp); experiment: Preservation of a cooling lubricant emulsion, repeated weekly contamination: bacteria; conditions: limit <10^6 CFU/g, maximum test duration 10 weeks
Excerpt: as §1
Bacteria: • Pseudomonas aeruginosa • Pseudomonas fluorescens • Pseudomonas oleovorans • Pseudomonas rubescens • Pseudomonas stutzeri • Alcaligenes faecalis • Citrobacter freundii • Corynebacterium sp
as §2
The maximum duration of the test was 10 weeks (=10 contaminations), if the following limits were not exceeded during the weekly determination of the number of germs: […]

[4] = 0.01% MIT based on cooling lubricant emulsion
[5] = 0.15% CMC based on cooling lubricant emulsion

Compound	number of weeks without colonization: moulds [1, 4] [weeks]	number of weeks without colonization: yeasts [2, 4] [weeks]	Amount of pure active compounds required to suppress growth (QA, QB) (Pseudomonas fluorescens)	number of weeks without colonization: bacteria [3, 4] [weeks]	number of weeks without colonization: moulds [1, 5] [weeks]	number of weeks without colonization: yeasts [2, 5] [weeks]	number of weeks without colonization: bacteria [3, 5] [weeks]
Cn1sccc1=O [MIT, 2-methyl-2H-isothiazol-3-one]	5	8	5 (QB) ppm	8	–	–	–
Cc1cc(O)ccc1Cl [CMC, p-chloro-m-cresol]	–	–	150 (QA) ppm	–	10	10	3
